Source: article PMC11231610, “Fatty acid binding to the human transport proteins FABP3, FABP4, and FABP5 from a Ligand’s perspective” (The Journal of Biological Chemistry, 2024)

What was measured:
FABPs = biological target: FABPs; design: method as in PMID 11461829; conditions: moderate to high binding affinities of FABPs, ref [2]; cited from earlier work
FABP5 = biological target: T1, FABP5 (Homo sapiens, UniProt Q01469); experiment: MST binding of fluorescent fatty acids to FABP5
T1 construct: purchased Sigma Aldrich
T1 sequence (Q01469 whole entry): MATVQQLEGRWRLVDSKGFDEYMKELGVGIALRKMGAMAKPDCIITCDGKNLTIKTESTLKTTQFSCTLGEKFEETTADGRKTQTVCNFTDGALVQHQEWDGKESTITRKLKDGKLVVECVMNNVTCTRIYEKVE
Description: (§1) FABPs are known to bind more hydrophobic ligands with higher affinity ([1]).
(§2) Microscale thermophoresis (MST) experiments were carried out on a Monolith NT.115 MST device (NanoTemper Technologies GmbH). […] […] In order to minimize the effect of protein aggregation, 0.05 Vol-% of Tween 20 (NanoTemper Technologies GmbH) were added to the HEPES/NaCl buffer solution. Samples were prepared in low-binding Eppendorf tubes. The influence of photobleaching on the quantum yield was reduced by using freshly diluted fluorophore solutions and storing the samples under the exclusion of light during the incubation time of 10 min. The samples were loaded into premium capillaries (NanoTemper Technologies GmbH). The coated capillary surface is designed to avoid the adhesion of molecules. Initially, repeated pre-tests without protein but with different fluorophore concentrations were carried out. This was done to find the optimum concentration and excitation power and to check the fluorescence activity of the fluorophores. The fluorescence intensity had to be in the range of 300 to 600 counts, with preferably smooth MST traces. For binding affinity measurements, the concentration of the fluorescent fatty acid was held constant at 80 nM, while the non-labeled FABPs were used at variable concentrations in a dilution series. The power of the IR laser was held constant at a medium set for all measurements, generating a constant temperature gradient. The measurements were performed as duplicates, using the software MO. Control (version 1.6) and afterward analyzed with the software MO. Affinity Analysis (version 2.3) (NanoTemper Technologies GmbH). The mean fluorescence intensities at the start time were divided by the values at the end time of the MST traces and normalized, obtaining the MST signal Fnorm. For all analyses, the end time was manually set to 1.5 s after the start of the heating process. Fnorm was normalized for the amplitude and baseline corrected to obtain the bound fraction.

FABP4 = biological target: T2, FABP4 (Homo sapiens, UniProt P15090); experiment: MST binding of fluorescent fatty acids to FABP4
T2 construct: purchased Sigma Aldrich
T2 sequence (P15090 whole entry): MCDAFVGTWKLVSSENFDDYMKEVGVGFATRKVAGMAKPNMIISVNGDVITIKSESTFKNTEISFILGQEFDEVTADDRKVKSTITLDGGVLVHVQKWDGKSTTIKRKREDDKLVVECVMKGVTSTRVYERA
Description: as §1, §2

FABP3 = biological target: T3, FABP3 (Homo sapiens, UniProt P05413); experiment: MST binding of fluorescent fatty acids to FABP3
T3 construct: purchased Sigma Aldrich
T3 sequence (P05413 whole entry): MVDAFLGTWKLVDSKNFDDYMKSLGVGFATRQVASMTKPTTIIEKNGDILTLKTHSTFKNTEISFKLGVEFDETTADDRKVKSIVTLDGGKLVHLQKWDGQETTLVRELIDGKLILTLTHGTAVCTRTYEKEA
Description: as §1, §2

[1] = 80 nM rhodamine-PA, HEPES/NaCl pH 7.5 with 0.05 Vol-% Tween 20

| Compound | Kd (FABPs) | lnKA (FABP5) | Kd (FABP5; [1]) | ΔGm,A (molar Gibbs energy of association) (FABP5; at 22 °C, van't Hoff equation) | lnKA (FABP4) | Kd (FABP4; 80 nM rhodamine-PA, FABP4 handled in water) | ΔGm,A (molar Gibbs energy of association) (FABP4; at 22 °C, van't Hoff equation) | lnKA (FABP3) | Kd (FABP3; [1]) | ΔGm,A (molar Gibbs energy of association) (FABP3; at 22 °C, van't Hoff equation) |
| --- | --- | --- | --- | --- | --- | --- | --- | --- | --- | --- |
| CCCCCCCC/C=C\CCCCCCCC(=O)O [oleic acid] | 0.44 to 1.56 µM |  |  |  |  |  |  |  |  |  |
| CCN(CC)c1ccc2c(-c3ccc(S(=O)(=O)NCCCCCCCCCCCCCCCC(=O)O)cc3S(=O)(=O)[O-])c3ccc(=[N+](CC)CC)cc-3oc2c1 [rhodamine-PA, [16-N-(lissamine rhodamine ß sulfonyl)amino] palmitic acid] |  | 11.7 ± 0.08 | 8.3 ± 0.7 µM | -6.86 ± 0.048 kcal/mol | 11.46 ± 0.18 | 10.5 ± 2.1 µM | -6.72 ± 0.105 kcal/mol | 12.56 ± 0.11 | 3.5 ± 0.4 µM | -7.36 ± 0.0645 kcal/mol |
